Assay results published in US5548062A, “Tumor cell invasion-inhibiting peptides, peptide complexes and cancer metastasis inhibitors” (Asahi Glass Company Ltd., priority 1990, dated 1996).
Where a SMILES comes first, the peptide text is derived from it.

Experiment: Kinetics in blood after injection into the tail vein
Parameters: species or system C57BL/6j mouse
Settings: female, C57BL/6j, mouse, in vivo, iv
Description: The kinetics in blood of the peptide of the formula (14) prepared in the Reference Example and the [^14 C]-labeled complex prepared in Example D-2 were studied.
To the vein of the tail of a C57BL/6j mouse (8 weeks old, female), 1,000 μg/0.2 cm^3 of the peptide or 100 μg/0.2 cm^3 of the labeled complex was injected. Upon expiration of a predetermined period of time, the carotid artery was cut for blood sampling. To quantitatively analyze the amount of the peptide in blood, to 1 cm^3 of the sampled blood, the same amount of 10% trifluoroacetic acid was added, followed by centrifugal separation at a speed of 10,000 rpm to precipitate the denatured protein, and the supernatant was recovered. […] To the obtained freeze-dried product, 0.2 cm^3 of distilled water was added, and the quantitative analysis was conducted by reversed phase (C18) chromatography. The quantitative analysis was conducted based on the quantitative curve obtained with a standard product (the peptide prepared in the Reference Example and quantitatively analyzed by an amino acid analysis).
To quantitatively analyze the [^14 C]-labeled complex, 2.5 cm^3 of a tissue solubilizer (NCA, Amersham Company) was added to 0.2 cm^3 of the sampled blood, followed by heating at 50° C. for two hours to solubilize the blood. […]

half-life: ~20 s
SMILES: C[C@H](N)C(=O)N[C@@H](CCC(=O)O)C(=O)N[C@@H](CC(=O)O)C(=O)NCC(=O)N[C@@H](CC(=O)O)C(=O)N[C@@H](C)C(=O)N[C@@H](CCCCN)C(=O)N[C@H](C(=O)N[C@@H](CC(=O)O)C(=O)N[C@@H](CCC(N)=O)C(=O)N[C@@H](C)C(=O)N[C@@H](CCC(=O)O)C(=O)N[C@@H](CCCCN)C(=O)N[C@@H](C)C(=O)N[C@@H](CCC(=O)O)C(=O)NCC(=O)N[C@@H](C)C(=O)NCC(=O)N[C@@H](CC(=O)O)C(=O)N[C@@H](C)C(=O)N[C@@H](CCCCN)C(=O)O)[C@@H](C)O [peptide of the formula (14), Ala-Glu-Asp-Gly-Asp-Ala-Lys-Thr-Asp-Glx-Ala-Glx-Lys-Ala-Glu-Gly-Ala-Gly-As p-Ala-Lys] (H-AEDGDAKTDQAEKAEGAGDAK-OH)
